According to patent EP2681209B1, “COMPOUNDS AND METHODS FOR THE TREATMENT OF PAIN AND OTHER DISORDERS” (Aquilus Pharmaceuticals, Inc, priority 2011, dated 2012):
Entries after “also recorded” stand apart in the source; their conditions may differ.

Legend:
[1] = In-vitro microsomal stability in human microsomes; assay type: in vitro ADME; settings: 1 µM compound, human microsomes 0.3 mg/mL
Method: Human and mouse microsomal stability was determined for select compounds following the method of Houston (Houston, JB; Biochem. Pharmacol. 47, (1994),1469).
1 µM concentration of compound and seperate human and mouse microsomes (0.3 mg/mL, BD bioscience) were used in the in-vitro assay. To ensure proper energy supply for microsomal degradation of compound, an energy regenerating system comprised of 100 mM potassium phosphate, 2mM NADPH, 3mM MgCl2, pH = 7.4. and the microsomal protein is added to each sample and the resulting suspension is then incubated in duplicate for 60 min at 37° C. in a rotary shaker. A control is run for each test agent in duplicate omitting NADPH to detect NADPH-free degradation. At T=0 and T= 60 min., an aliquot is removed from each experimental and control reaction and then mixed with an equal volume of ice-cold Stop Solution (consisting of 0.3% acetic acid in acetonitrile containing haloperidol and diclofenac as internal standards). […] The samples are then centrifuged to remove precipitated protein, and the supernatants are then analyzed by LC-MS/MS to determine the percentage of compound remaining. […] After separation on a C18 reverse phase HPLC column (Agilent, Waters, or equivalent) using an acetonitrile-water gradient system, peaks were analyzed by mass spectrometry (MS) using ESI ionization in MRM mode.

CD-1 mice = test: Naloxone-precipitated morphine withdrawal mouse study, intrathecal administration; assay type: in vivo; settings: i.t. 10 µl/mouse every 8 hours for 2.5 days with escalating IP morphine; naloxone 1 mg/kg s.c.; compared to control and vehicle
Source text: One can measure the effects of intrathecal (i.t.) or intraparitoneal (i.p.) administration of a matrix metallorproteinase (MMP) inhibitor in a mouse model of morphine analgesia, tolerance and withdrawal. The purpose of which is to measure the effects of a MMP inhibitor on 1) attenuating morphine tolerance in mice and 2) withdrawal behavior in naloxone-precipitated morphine withdrawal in mice. The animal model which was developed in the 1960's and refined in the early 1970's utilizes the opioid antagonist, naloxone to rapidly block the µ-opioid receptor to "precipitate" withdrawal behavior in rodents (Zachariou, V. et al.; Essential role for RGS9 in opiate action, PNAS, 100(23), p 13656-13661, (2003)). […]
Drug Administration & Morphine withdrawal Studies: The matrix metalloproteinase (MMP) inhibitors were dissolved in phosphate buffered saline (PBS) and dimethylsulfoxide (DMSO) and diluted in PBS (final concentration of DMSO for intrathecal administration was 10%). […] Two hours after the last morphine injection, naloxone (1 mg/kg) was administered s.c. Withdrawal behaviors were then monitored for 30 min, 1 hr after the naloxone injection. […]
MMP inhibitor effects on morphine withdrawal For testing the morphine withdrawal-like behavioral signs following intrathecal MMP inhibitor administration, the withdrawal symptoms were monitored for 30 minutes 1-2 h after naloxone administration. […]

| SMILES | Mean Remaining Parent with NADPH (%) ([1]; 60 min at 37° C) | Mean Remaining Parent without NADPH (%) ([1]; control omitting NADPH, at T = 60 minutes) | morphine withdrawal behavior (behavioral signs, overall opiate withdrawal score) (CD-1 mice) |
| --- | --- | --- | --- |
| Cc1ccc(C#Cc2ccc(S(=O)(=O)N[C@H](Cc3c[nH]c4ccccc34)C(=O)O)s2)cc1 [Compound 5, (R)-3-(1H-Indol-3-yl)-2-(5-p-tolylethynyl-thiophene-2-sulfonylamino)-propionic acid] | 86 | 89 | – |
| [2H]C([2H])([2H])c1ccc(C#Cc2ccc(S(=O)(=O)N[C@H](Cc3c[nH]c4ccccc34)C(=O)O)s2)cc1 [Compound 10, (R)-3-(1H-Indol-3-yl)-2-[5-(4-trideuteromethyl-phenylethynyl)-thiophene-2-sulfonylamino]-propionic acid-(D3, 98%)] | – | – | able to reduce overall morphine withdrawal behavior; also recorded: significantly attenuates behavioral signs of naloxone-precipitated morphine withdrawal |
